target: T1, human CCR1 (Homo sapiens, UniProt P32246); experiment: CCR1 binding protocol (SPA, [125I]-MIP-1α displacement); details: cell membrane expressing human CCR1, 0.1 nM [125I]-MIP-1α, 4 hours at ambient temperature; read-out: Relative potency (IC50)
T1 sequence (P32246 1-355): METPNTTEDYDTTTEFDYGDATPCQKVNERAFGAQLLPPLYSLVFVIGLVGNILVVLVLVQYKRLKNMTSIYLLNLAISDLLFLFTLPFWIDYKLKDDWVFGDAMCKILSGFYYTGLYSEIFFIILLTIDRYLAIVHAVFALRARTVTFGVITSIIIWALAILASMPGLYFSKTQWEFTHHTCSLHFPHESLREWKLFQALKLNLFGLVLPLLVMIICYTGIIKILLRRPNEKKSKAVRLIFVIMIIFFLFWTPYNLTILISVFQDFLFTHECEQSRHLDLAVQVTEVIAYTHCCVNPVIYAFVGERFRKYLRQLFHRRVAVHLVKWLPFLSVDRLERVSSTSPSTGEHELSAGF
Method in brief: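 Displacement of 0.1 nM [125I]-MIP-1α (final) from membranes expressing human CCR1 was measured by scintillation proximity after 4 h at ambient temperature. Conditions: pH 7.4 Tris buffer with 0.1% BSA and MnCl, and 0.5 μg membrane per well. Compounds were tested as a 10-step ½-log series from a 10 mM DMSO stock to derive IC50.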

Row | Compound | IC50 [nM]
1 | Cc1nnc([C@H]2CCCN2C(=O)NCC2CN(S(C)(=O)=O)C2)n1Cc1ccc(Cl)cc1 [Compound 591] | 500 to 5000
2 | CC(=O)N1CCC(CNC(=O)N2CCC[C@@H]2c2nnc(C)n2Cc2ccc(Cl)cc2)C1 (some centres unmarked) [Compound 592] | 50 to 500
3 | Cc1nnc([C@H]2CCCN2C(=O)NCC2CCN(S(C)(=O)=O)C2)n1Cc1ccc(Cl)cc1 (some centres unmarked) [Compound 593] | 50 to 500
4 | Cc1nnc([C@H]2CCCN2C(=O)NCC2CCOC2)n1Cc1ccc(Cl)cc1 (some centres unmarked) [Compound 594] | 500 to 5000
5 | Cc1nnc([C@H]2CCCN2C(=O)Nc2cc(-c3ccc(Cl)cc3)nn2C)n1Cc1ccc(Cl)cc1 [Compound 595] | 50 to 500
6 | Cc1sc(NC(=O)N2CCC[C@@H]2c2nnc(C)n2Cc2ccc(Cl)cc2)nc1-c1ccccc1 [Compound 597] | 500 to 5000
7 | CC(=O)N1CCC(CNC(=O)N2CCC[C@@H]2c2nnc(C)n2Cc2ccc(Cl)cc2)CC1 [Compound 598] | 50 to 500
8 | CC(=O)N1CCCC(CNC(=O)N2CCC[C@@H]2c2nnc(C)n2Cc2ccc(Cl)cc2)C1 (some centres unmarked) [Compound 599] | 50 to 500
9 | Cc1nnc([C@H]2CCCN2C(=O)NCC2CCN(S(C)(=O)=O)CC2)n1Cc1ccc(Cl)cc1 [Compound 600] | 50 to 500
10 | Cc1nnc([C@H]2CCCN2C(=O)NCC2CCCN(S(C)(=O)=O)C2)n1Cc1ccc(Cl)cc1 (some centres unmarked) [Compound 601] | 50 to 500
11 | Cc1nnc([C@H]2CCCN2C(=O)NCCC2CCCCO2)n1Cc1ccc(Cl)cc1 (some centres unmarked) [Compound 602] | 50 to 500
12 | Cc1nnc([C@H]2CCCN2C(=O)Nc2ccc3[nH]ccc3c2)n1Cc1ccc(Cl)cc1 [Compound 603] | 500 to 5000
13 | CC(=O)N1CCC(NC(=O)N2CCC[C@@H]2c2nnc(C)n2Cc2ccc(Cl)cc2)c2ccccc21 (some centres unmarked) [Compound 604] | < 50
14 | Cc1nc(C(F)(F)F)ccc1N/C(=N\O)N1CCC[C@@H]1c1nnc(C)n1Cc1ccc(Cl)cc1 [Compound 605] | 50 to 500
15 | Cc1nnc([C@H]2CCCN2C(=S)Nc2ccc(Cl)cc2F)n1Cc1ccc(Cl)cc1 [Compound 606] | < 50
16 | Cc1nnc([C@H]2CCCN2C(=S)Nc2ccc(C(F)(F)F)cc2)n1Cc1ccc(Cl)cc1 [Compound 608] | < 50
17 | Cc1cc(C)c(S(=O)(=O)N(C)C)cc1Nc1c(N2CCC[C@@H]2c2nnc(C)n2Cc2ccc(Cl)cc2)c(=O)c1=O [Compound 609] | 50 to 500
18 | Cc1nc(C(F)(F)F)ccc1CC(=O)N1CCC[C@@H]1c1ncnn1Cc1ccc(Cl)cc1 [Compound 617] | 50 to 500
19 | Cc1nc(C(F)(F)F)ccc1CC(=O)N1CCC[C@@H]1c1nncn1Cc1ccc(Cl)cc1 [Compound 618] | < 50
20 | Cc1nc(C(F)(F)F)ccc1CC(=O)N1C[C@@H](O)C[C@@H]1c1nnc(C)n1Cc1ccc(Cl)cc1 [Compound 619] | < 50

Results, then the molecule that gave them:

Row | IC50 [nM] | Compound
21 | 500 to 5000 | Cc1nc(NC(=O)N2CCC[C@@H]2c2nnc(C)n2Cc2ccc(Cl)cc2)sc1C [Compound 596]
22 | < 50 | Cc1nc(C(F)(F)F)ccc1NC(=S)N1CCC[C@@H]1c1nnc(C)n1Cc1ccc(Cl)cc1 [Compound 607]
23 | < 50 | Cc1nc(C(F)(F)F)ccc1CC(=O)N1CCC[C@@H]1c1nnc(C)n1Cc1ccc(Cl)cc1 [Compound 610]
24 | < 50 | Cc1noc(C)c1N/C(=C\[N+](=O)[O-])N1CCC[C@@H]1c1nnc(C)n1Cc1ccc(Cl)cc1 [Compound 611]
25 | 50 to 500 | Cc1nnc([C@H]2CCCN2/C(=C/[N+](=O)[O-])NCc2ccc(Cl)cc2Cl)n1Cc1ccc(Cl)cc1 [Compound 612]
26 | 50 to 500 | Cc1nnc([C@H]2CCCN2/C(=C/[N+](=O)[O-])Nc2ccc(Cl)cc2F)n1Cc1ccc(Cl)cc1 [Compound 613]
27 | < 50 | CC[C@H](N/C(=C/[N+](=O)[O-])N1CCC[C@@H]1c1nnc(C)n1Cc1ccc(Cl)cc1)c1ccc(C(F)(F)F)nc1 [Compound 614]
28 | < 50 | Cc1onc(C(F)(F)F)c1NC(=O)N1CCC[C@@H]1c1nnc(C)n1Cc1ccc(Cl)cc1 [Compound 615]
29 | < 50 | Cc1noc(C(F)(F)F)c1NC(=O)N1CCC[C@@H]1c1nnc(C)n1Cc1ccc(Cl)cc1 [Compound 616]

From patent publication US8288371B2, “Ortho pyrrolidine, benzyl-substituted heterocycle CCR1 antagonists for autoimmune diseases and inflammation” (Pharmacopeia, LLC, priority 2007, dated 2012)
